Assay results as given in PubChem BioAssay AID248 (DTP/NCI, 2004).
Values joined by “and” are separate entries in the source; they are usually repeats but may differ in a detail not shown here. Equal entries are not always repeated. Toxic doses and inconclusive results are not listed. Rule as the data show it: active = T/C of 150% or more; inactive = T/C below 125%.

Tested on: L1210 leukemia ip in BDF1 mice, survival T/C
Assay: NCI In Vivo Anticancer Drug Screen. Data for tumor model L1210 Leukemia (intraperitoneal) in B6D2F1 (BDF1) mice
Details: endpoint: mean survival time, higher = longer survival
Procedure, shortened: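 Tumor was transplanted into mice, which were then dosed with test compound or vehicle alone. Survival was recorded for each group, and the treated figure was expressed relative to the control figure.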

[1] = dose: 100.0 mg/kg/injection, schedule: Q04DX003 (ip), vehicle: saline with Tween-80
[2] = dose: 200.0 mg/kg/injection, schedule: Q04DX003 (ip), vehicle: saline with Tween-80
[3] = dose: 400.0 mg/kg/injection, schedule: Q04DX003 (ip), vehicle: saline with Tween-80
[4] = dose: 12.5 mg/kg/injection, schedule: Q04DX003 (ip), vehicle: saline
[5] = dose: 25.0 mg/kg/injection, schedule: Q04DX003 (ip), vehicle: saline
[6] = dose: 50.0 mg/kg/injection, schedule: Q04DX003 (ip), vehicle: saline
[7] = dose: 100.0 mg/kg/injection, schedule: Q04DX002 (ip), vehicle: other
[8] = dose: 200.0 mg/kg/injection, schedule: Q04DX002 (ip), vehicle: other
[9] = dose: 400.0 mg/kg/injection, schedule: Q04DX002 (ip), vehicle: other
[10] = dose: 100.0 mg/kg/injection, schedule: Q01DX001 (ip), vehicle: Klucel (hydroxypropylcellulose) (HPC)
[11] = dose: 100.0 mg/kg/injection, schedule: Q04DX002 (ip), vehicle: Klucel (hydroxypropylcellulose) (HPC)
[12] = dose: 200.0 mg/kg/injection, schedule: Q04DX002 (ip), vehicle: Klucel (hydroxypropylcellulose) (HPC)
[13] = dose: 100.0 mg/kg/injection, schedule: Q01DX001 (ip), vehicle: carboxymethylcellulose (CMC)
[14] = dose: 200.0 mg/kg/injection, schedule: Q01DX001 (ip), vehicle: carboxymethylcellulose (CMC)
[15] = dose: 400.0 mg/kg/injection, schedule: Q01DX001 (ip), vehicle: carboxymethylcellulose (CMC)
[16] = dose: 100.0 mg/kg/injection, schedule: Q04DX002 (ip), vehicle: saline with Tween-80
[17] = dose: 200.0 mg/kg/injection, schedule: Q04DX002 (ip), vehicle: saline with Tween-80

Measured: T/C

CCCCCCCCCCCCOc1ccc(C(C)(C)C)cc1
inactive: dose: 100.0 mg/kg/injection, schedule: Q01DX007 (ip), vehicle: saline with Tween-80 97 % of control | [1] 100 % of control | dose: 200.0 mg/kg/injection, schedule: Q01DX007 (ip), vehicle: saline with Tween-80 96 % of control | [2] 95 % of control | dose: 400.0 mg/kg/injection, schedule: Q01DX007 (ip), vehicle: saline with Tween-80 97 % of control | [3] 101 % of control

Cc1cc2ccccc2c[n+]1C
inactive: dose: 12.5 mg/kg/injection, schedule: Q01DX009 (ip), vehicle: saline 95 % of control | [4] 106 % of control | dose: 25.0 mg/kg/injection, schedule: Q01DX009 (ip), vehicle: saline 101 % of control | [5] 90 % of control | dose: 50.0 mg/kg/injection, schedule: Q01DX009 (ip), vehicle: saline 108 % of control | [6] 107 % of control

CC1=C2CCCC3(OCCO3)C2(C)CCC1=O (stereo not drawn)
inactive: [7] 98 % of control | [8] 109 % of control | [9] 102 % of control

CCCNC(=O)Sc1ccc(C(C)(C)C)cc1
inactive: dose: 25.0 mg/kg/injection, schedule: Q01DX001 (ip), vehicle: Klucel (hydroxypropylcellulose) (HPC) 91 % of control | dose: 25.0 mg/kg/injection, schedule: Q01DX009 (ip), vehicle: Klucel (hydroxypropylcellulose) (HPC) 95 % of control and 104 % of control | dose: 50.0 mg/kg/injection, schedule: Q01DX001 (ip), vehicle: Klucel (hydroxypropylcellulose) (HPC) 91 % of control | dose: 50.0 mg/kg/injection, schedule: Q01DX009 (ip), vehicle: Klucel (hydroxypropylcellulose) (HPC) 98 % of control and 112 % of control | [10] 93 % of control | dose: 100.0 mg/kg/injection, schedule: Q01DX009 (ip), vehicle: Klucel (hydroxypropylcellulose) (HPC) 93 % of control and 102 % of control and 104 % of control | [11] 95 % of control and 89 % of control | [12] 96 % of control and 97 % of control | dose: 400.0 mg/kg/injection, schedule: Q04DX002 (ip), vehicle: Klucel (hydroxypropylcellulose) (HPC) 92 % of control and 93 % of control

Cc1cc(Br)cnc1Cl
inactive: [1] 96 % of control | [2] 94 % of control | [3] 96 % of control

O=[N+]([O-])c1ccc(Oc2cccc(C(F)(F)F)c2)c(Cl)c1
inactive: [10] 94 % of control | dose: 200.0 mg/kg/injection, schedule: Q01DX001 (ip), vehicle: Klucel (hydroxypropylcellulose) (HPC) 97 % of control | dose: 400.0 mg/kg/injection, schedule: Q01DX001 (ip), vehicle: Klucel (hydroxypropylcellulose) (HPC) 95 % of control

CCOC(=O)c1cnn2c(=O)[nH]cnc12
inactive: [1] 98 % of control | [2] 109 % of control

CCOC(=O)CCC(C(=O)OCC)C(=O)OCC
inactive: dose: 100.0 mg/kg/injection, schedule: Q01DX009 (ip), vehicle: saline with Tween-80 86 % of control | [1] 106 % of control | dose: 200.0 mg/kg/injection, schedule: Q01DX009 (ip), vehicle: saline with Tween-80 88 % of control | [2] 103 % of control | dose: 400.0 mg/kg/injection, schedule: Q01DX009 (ip), vehicle: saline with Tween-80 88 % of control | [3] 94 % of control

CC1(c2ccc(N(CCCl)CCCl)cc2)NC(=O)NC1=O (stereo not drawn)
inactive: [4] 98 % of control | [5] 103 % of control | [6] 103 % of control | dose: 100.0 mg/kg/injection, schedule: Q04DX003 (ip), vehicle: saline 113 % of control | dose: 200.0 mg/kg/injection, schedule: Q04DX003 (ip), vehicle: saline 121 % of control

NC(Cc1c[nH]c2ccc(O)cc12)C(=O)O (stereo not drawn)
inactive: [13] 95 % of control | [14] 102 % of control | [15] 100 % of control

CC1CN1P1(=O)OCC(C)([N+](=O)[O-])CO1 (stereo not drawn)
inactive: dose: 50.0 mg/kg/injection, schedule: Q01DX001 (ip), vehicle: carboxymethylcellulose (CMC) 106 % of control | [13] 110 % of control | [14] 104 % of control | [15] 112 % of control

Nc1ccc2nc3c(N)ccc(N)c3nc2c1
inactive: [16] 97 % of control | [17] 105 % of control | dose: 400.0 mg/kg/injection, schedule: Q04DX002 (ip), vehicle: saline with Tween-80 105 % of control

CC(C)C1CCC(/C=C(\C#N)C2CCC([N+](=O)[O-])CC2)CC1 (stereo not drawn)
inactive: [7] 95 % of control | [8] 95 % of control | [9] 92 % of control

CN(C)c1ccc([N+](=O)[O-])cn1
inactive: [16] 97 % of control | [17] 97 % of control

O=C(c1ccccn1)C(O)c1ccccn1 (stereo not drawn)
inactive: dose: 50.0 mg/kg/injection, schedule: Q04DX002 (ip), vehicle: Klucel (hydroxypropylcellulose) (HPC) 96 % of control | [11] 99 % of control | [12] 96 % of control

C1CN=C2CCCN2C1
inactive: dose: 18.75 mg/kg/injection, schedule: Q01DX009 (ip), vehicle: saline 100 % of control | dose: 37.5 mg/kg/injection, schedule: Q01DX009 (ip), vehicle: saline 97 % of control

Cc1ccccc1-c1nc2ncnc(N)c2[nH]1
inactive: dose: 31.8 mg/kg/injection, schedule: Q01DX001 (ip), vehicle: Klucel (hydroxypropylcellulose) (HPC) 104 % of control | dose: 62.5 mg/kg/injection, schedule: Q01DX001 (ip), vehicle: Klucel (hydroxypropylcellulose) (HPC) 109 % of control | dose: 125.0 mg/kg/injection, schedule: Q01DX001 (ip), vehicle: Klucel (hydroxypropylcellulose) (HPC) 101 % of control

CCP(=O)(CC)OCCCCOP(=O)(CC)CC
inactive: dose: 75.0 mg/kg/injection, schedule: Q01DX Z (ip), vehicle: saline 104 % of control | dose: 100.0 mg/kg/injection, schedule: Q01DX Z (ip), vehicle: saline 98 % of control
